Holding throughout (type): cell-based
One assay has as its target human M1 receptor (Homo sapiens (Human), UniProt P11229). The assay can be described thus: In vitro functional assay of muscarinic acetylcholine receptor activity, aequorin calcium flux, reversal of EC80 acetylcholine. On the procedure:
(§1) CHO-K1 cells stably expressing human M1 receptor with aequorin (Perkin Elmer) were grown in F12 media (Gibco) containing 10% FBS (ATCC), 0.4 mg/mL geneticin (Sigma-Aldrich) and 0.25 mg/mL Zeocin (Invitrogen). Cells were grown as per the manufacturer's protocol. For compound testing, cells were grown to confluency and detached gently with Accutase (Sigma-Aldrich) followed by centrifugation for 5 min at 150×g. Cells were then re-suspended in assay buffer (i.e. DMEM/F-12 HEPES without phenol red (Invitrogen) with 0.1% BSA (Sigma-Aldrich)) at a density of 5×10^6 cells/ml. Under sterile conditions, 5 μM coelenterazine (Invitrogen) was added to the cells, mixed, then incubated at room temperature protected from light, with gentle agitation, for 4 h.
(§2) Primary compound plates were prepared in 100% DMSO in opaque 96-well plates (VWR) and serially diluted in half log increments. Secondary compound plates were prepared at 3× concentration in assay buffer. Compounds were added to white, clear bottom tissue culture treated 96-well plates (Fisher Scientific). Coelenterazine-loaded cells were then added at 5×10^5 cells/well.
(§3) Compounds and cells were incubated at room temperature for 30 min in the dark. Acetylcholine at the EC80 concentration was added and calcium flux measured using a FlexStation 3 (Molecular Devices). Sigmoidal dose-response curves were generated by measuring luminescence over 40 sec and calculating the area under the curve. Dose response curves and IC50 values were generated using Prism (GraphPad). Compounds were tested at a final concentration range of 100 pM to 10 μM in 0.1% DMSO.

The target of a further assay is human M4 receptor (Homo sapiens (Human), UniProt P08173). The assay is described as follows: Aequorin calcium flux assay, reversal of EC80 acetylcholine response, M4. On the procedure: as §1, §2, §3
(§4) CHO-K1 cells stably expressing human M2, M3 and M4 receptors, respectively, with aequorin (Perkin Elmer) were used to assess a test compound's ability to dose-dependently reverse the EC80 acetylcholine response. The IC50 of the compounds was calculated from the dose response curve.
On the technique in general: Calcium flux is commonly read through the fluorescence of an indicator in the cells.

Another assay deals with human M3 receptor (Homo sapiens (Human), UniProt P20309). The assay can be described thus: Aequorin calcium flux assay, reversal of EC80 acetylcholine response, M3. On the procedure:
as §1, §2, §3, §4

The next assay deals with human M2 receptor (Homo sapiens (Human), UniProt P08172). The assay can be described thus: Aequorin calcium flux assay, reversal of EC80 acetylcholine response, M2. On the procedure: as §1, §2, §3, §4
[1] abbreviates: CHO-K1 cells expressing human M2 receptor with aequorin, acetylcholine at EC80, read-out: M2 IC50.
[2] abbreviates: CHO-K1 cells expressing human M1 receptor with aequorin, acetylcholine at EC80, read-out: M1 IC50.

Each structure is given as a SMILES string. Read-outs that look alike come from different tables or passages of the source.

Sequence of human M2 receptor (P08172 whole entry): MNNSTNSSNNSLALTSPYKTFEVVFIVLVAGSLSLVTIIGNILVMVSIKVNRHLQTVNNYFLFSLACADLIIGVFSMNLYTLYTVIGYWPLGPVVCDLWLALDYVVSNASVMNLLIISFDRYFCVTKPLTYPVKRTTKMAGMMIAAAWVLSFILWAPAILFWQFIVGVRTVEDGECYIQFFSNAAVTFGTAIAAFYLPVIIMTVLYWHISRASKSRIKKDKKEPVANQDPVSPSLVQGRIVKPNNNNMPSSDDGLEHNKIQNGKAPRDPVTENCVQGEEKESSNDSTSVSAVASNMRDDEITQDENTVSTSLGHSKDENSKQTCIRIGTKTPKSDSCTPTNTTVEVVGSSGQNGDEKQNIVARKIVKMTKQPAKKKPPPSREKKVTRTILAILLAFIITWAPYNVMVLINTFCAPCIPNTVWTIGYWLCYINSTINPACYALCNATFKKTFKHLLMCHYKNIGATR
Sequence of human M1 receptor (P11229 whole entry): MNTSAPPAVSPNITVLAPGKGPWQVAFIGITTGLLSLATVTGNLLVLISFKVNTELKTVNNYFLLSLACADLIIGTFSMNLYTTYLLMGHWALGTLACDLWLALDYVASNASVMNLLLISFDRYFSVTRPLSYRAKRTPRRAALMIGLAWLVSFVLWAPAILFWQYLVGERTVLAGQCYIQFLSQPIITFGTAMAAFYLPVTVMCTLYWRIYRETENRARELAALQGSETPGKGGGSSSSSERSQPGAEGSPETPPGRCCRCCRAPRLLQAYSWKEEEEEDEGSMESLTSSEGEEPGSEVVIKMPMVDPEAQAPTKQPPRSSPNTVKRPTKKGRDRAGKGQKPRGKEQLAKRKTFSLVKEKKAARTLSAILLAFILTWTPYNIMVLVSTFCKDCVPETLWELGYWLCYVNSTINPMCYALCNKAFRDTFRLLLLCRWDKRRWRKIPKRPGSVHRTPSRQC
Sequence of human M4 receptor (P08173 whole entry): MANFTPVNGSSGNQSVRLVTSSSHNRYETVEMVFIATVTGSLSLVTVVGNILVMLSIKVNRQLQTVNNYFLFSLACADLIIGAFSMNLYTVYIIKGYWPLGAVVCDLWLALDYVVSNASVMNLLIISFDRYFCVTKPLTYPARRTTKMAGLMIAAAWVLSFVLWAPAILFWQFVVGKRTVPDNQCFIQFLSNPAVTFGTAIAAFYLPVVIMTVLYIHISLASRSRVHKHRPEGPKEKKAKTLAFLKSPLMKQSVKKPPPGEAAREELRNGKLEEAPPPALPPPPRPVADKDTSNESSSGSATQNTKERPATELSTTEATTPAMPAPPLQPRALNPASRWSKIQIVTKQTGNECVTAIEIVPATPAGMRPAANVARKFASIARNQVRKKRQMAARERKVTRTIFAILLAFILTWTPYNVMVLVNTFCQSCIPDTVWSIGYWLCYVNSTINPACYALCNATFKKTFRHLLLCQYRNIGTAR
Sequence of human M3 receptor (P20309 whole entry, looked up): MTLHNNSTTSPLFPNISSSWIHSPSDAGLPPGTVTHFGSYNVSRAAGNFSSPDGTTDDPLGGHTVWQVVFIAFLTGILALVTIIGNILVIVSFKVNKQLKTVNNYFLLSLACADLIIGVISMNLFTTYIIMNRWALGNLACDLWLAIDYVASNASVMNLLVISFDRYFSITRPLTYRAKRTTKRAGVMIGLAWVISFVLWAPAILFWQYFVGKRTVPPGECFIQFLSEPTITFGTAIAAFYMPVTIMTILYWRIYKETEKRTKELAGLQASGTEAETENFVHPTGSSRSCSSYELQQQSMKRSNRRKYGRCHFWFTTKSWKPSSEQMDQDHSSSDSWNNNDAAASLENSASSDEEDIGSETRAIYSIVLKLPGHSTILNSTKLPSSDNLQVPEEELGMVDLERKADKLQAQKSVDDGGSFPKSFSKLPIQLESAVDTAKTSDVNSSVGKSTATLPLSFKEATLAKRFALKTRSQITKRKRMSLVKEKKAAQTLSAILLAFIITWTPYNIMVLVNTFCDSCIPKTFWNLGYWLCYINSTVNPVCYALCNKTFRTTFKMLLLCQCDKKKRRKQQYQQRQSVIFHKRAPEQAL

Take `COc1cccc(S(=O)(=O)CCC(=O)N2CC3CCC(C2)N3c2ccc(C#N)cn2)c1` [Example 2, 6-(3-(3-((3-methoxyphenyl)sulfonyl)propanoyl)-3,8-diazabicyclo[3.2.1]octan-8-yl)nicotinonitrile]: the IC50 at human M1 receptor is 10 to 100 nM; at human M4 receptor, 100 to 1000 nM; on human M3 receptor it was 100 to 1000 nM; at human M2 receptor (setting [1]) it was over 10000 nM.

As to `Cc1c(F)cccc1S(=O)(=O)CCC(=O)N1CC2CCC(C1)N2c1ccc(C#N)cn1` [Example 24, 6-{3-[3-(3-fluoro-2-methylbenzenesulfonyl)propanoyl]-3,8-diazabicyclo [3.2.1]octan-8-yl}pyridine-3-carbonitrile], the IC50 on human M1 receptor (setting [2]) is under 10 nM; on human M4 receptor it was 100 to 1000 nM; at human M3 receptor, 100 to 1000 nM; on human M2 receptor (setting [1]) it was 1000 to 10000 nM.

For the compound `N#Cc1ccc(N2C3CCC2CN(C(=O)CCS(=O)(=O)c2ccccc2[C@H]2CC2(F)F)C3)nc1` (single isomer, unassigned) [Example 35], the IC50 at human M1 receptor (setting [2]) was under 10 nM; on human M4 receptor (CHO-K1 cells expressing human M4 receptor with aequorin, acetylcholine at EC80, read-out: M4 IC50) it was 10 to 100 nM; on human M3 receptor (CHO-K1 cells expressing human M3 receptor with aequorin, acetylcholine at EC80, read-out: M3 IC50) it was 100 to 1000 nM; at human M2 receptor, 10 to 100 nM.

Consider `COc1cc(S(=O)(=O)CCC(=O)N2CC3CCC(C2)N3c2ccc(C#N)cn2)ccc1F` [Example 3, 6-(3-(3-((4-fluoro-3-methoxyphenyl)sulfonyl)propanoyl)-3,8-diazabicyclo[3.2.1]octan-8-yl)nicotinonitrile], for which the half-maximal inhibitory concentration (IC50) is under 10 nM on human M1 receptor (setting [2]), 100 to 1000 nM on human M4 receptor, 100 to 1000 nM on human M3 receptor and over 10000 nM at human M2 receptor (setting [1]).

Turning to `N#Cc1ccc(N2C3CCC2CN(C(=O)CCS(=O)(=O)c2cc(F)cc(F)c2)C3)nc1` [Example 8, 6-{3-[3-(3,5-difluorobenzenesulfonyl)propanoyl]-3,8-diazabicyclo [3.2.1]octan-8-yl}pyridine-3-carbonitrile], the half-maximal inhibitory concentration (IC50) at human M1 receptor fell in the range of 10 to 100 nM.

Usually IC50 stands for the concentration that gives 50% inhibition.

The values are drawn from patent US11752149B2, “Muscarinic acetylcholine M1 receptor antagonists” (Pipeline Therapeutics, Inc., priority 2019, dated 2023).
